Reference: US7012078B2, “2-aminopyridines containing fused ring substituents” (Pfizer Inc., priority 1997, dated 2006)
Where a name gives a salt, the structure may show the parent alone.

Compound	melting point
CN(C)CCCCOc1ccc(-c2cccc(N)n2)c2ccccc12 (as salt: hydrochloride) [Example 26, 6-[4-(4-Dimethylamino-butoxy)-naphthalen-1-yl]-pyridin-2-ylamine]	78 to 90 °C
Nc1cccc(-c2ccc(OC3CCN(Cc4ccco4)C3)c3ccccc23)n1 (centres unmarked) (as salt: hydrochloride) [Example 32, 6-[4-(1-Furan-2-ylmethyl-pyrrolidin-3-yloxy)-naphthalen-1-yl]-pyridin-2-ylamine]	140 to 160 °C
Nc1cccc(-c2ccc(OCC3CCCNC3)c3ccccc23)n1 (centres unmarked) (as salt: hydrochloride) [Example 64, 6-[4-(Piperidin-3-ylmethoxy)-naphthalen-1-yl]-pyridin-2-ylamine]	164 to 185 °C
Nc1cccc(-c2ccc(CCN3CCC(C(c4ccccc4)c4ccccc4)CC3)c3ccccc23)n1 (as salt: hydrochloride) [Example 3, 6-{4-[2-(4-Benzhydryl-piperidin-1-yl)-ethyl]-naphthalen-1-yl}-pyridin-2-ylamine]	225 to 235 °C
Nc1cccc(-c2ccc(OC3CCN(Cc4ccccc4)C3)c3ccccc23)n1 (centres unmarked) (as salt: hydrochloride) [Example 25, 6-[4-(1-Benzyl-pyrrolidin-3-yloxy)-naphthalen-1-yl]-pyridin-2-ylamine]	160 to 170 °C
Nc1cccc(-c2ccc(OCCN3CCN(CCc4ccccc4)CC3)c3ccccc23)n1 (as salt: hydrochloride) [Example 17, 6-{4-[2-(4-Phenethyl-piperazin-1-yl)-ethoxy]-naphthalen-1-yl}-pyridin-2-ylamine]	45 to 80 °C
Nc1cccc(-c2ccc(CCNCc3ccc(Cl)c(Cl)c3)c3ccccc23)n1 (as salt: hydrochloride) [Example 11, 6-{4-[2-(3,4-Dichloro-benzylamino)-ethyl]-naphthalen-1-yl}-pyridin-2-ylamine]	145 to 170 °C
Nc1cccc(-c2ccc(OC3CCCCC3N)c3ccccc23)n1 (centres unmarked) (as salt: hydrochloride) [Example 63, 6-[4-(2-Amino-cyclohexyloxy)-naphthalen-1-yl]-pyridin-2-ylamine]	218 to 230 °C
CC(C)CN1CCN(CCOc2ccc(-c3cccc(N)n3)c3c2CCC3)CC1 (as salt: hydrochloride) [Example 62, 6-[7-[(4-Isobutylpiperazin-1-yl)-ethoxy]-indan-4-yl]-pyridin-2-ylamine]	170 to 190 °C
CC(C)N1CC(Oc2ccc(-c3cccc(N)n3)c3ccccc23)C1 (as salt: hydrochloride) [Example 76, 6-[4-(N-Isopropyl-azetidin-3-yloxy)-naphthalen-1-yl]-pyridin-2-ylamine]	120 to 135 °C
Nc1cccc(-c2ccc(OC3CCN(Cc4ccco4)CC3)c3ccccc23)n1 (as salt: hydrochloride) [Example 30, 6-[4-(1-Furan-2-ylmethyl-piperidin-4-yloxy)-naphthalen-1-yl]-pyridin-2-ylamine]	178 to 195 °C
Nc1cccc(-c2ccc(CCNCc3cccc(Cl)c3)c3ccccc23)n1 (as salt: hydrochloride) [Example 9, 6-{4-[2-(3-Chloro-benzylamino)-ethyl]-naphthalen-1-yl}-pyridin-2-ylamine]	60 to 75 °C
Nc1cccc(-c2ccc(OCC3CNC3)c3ccccc23)n1 (as salt: hydrochloride) [Example 73, 6-[4-(Azetidin-3-ylmethoxy)-naphthalen-1-yl]-pyridin-2-ylamine]	88 to 110 °C
Nc1cccc(-c2ccc(OCCN3CCN(CCc4ccccc4)CC3)c3c2CCC3)n1 (as salt: hydrochloride) [Example 61, 6-[7-[(4-Phenethylpiperazin-1-yl)-ethoxy]-indan-4-yl]-pyridin-2-ylamine]	105 to 130 °C
CN1C2CCC1CC(Oc1ccc(-c3cccc(N)n3)c3ccccc13)C2 (centres unmarked) (as salt: hydrochloride)	260 to 275 °C
Nc1cccc(-c2ccc(OC3CN(Cc4cccnc4)C3)c3ccccc23)n1 (as salt: hydrochloride) [Example 72, 6-[4-(1-Pyridin-3-ylmethyl-azetidin-3-yloxy)-naphthalen-1-yl]-pyridin-2-ylamine]	150 to 180 °C
Nc1cccc(-c2ccc(OCC3CCN3)c3ccccc23)n1 (centres unmarked) (as salt: salt) [Example 71, 6-[4-(Azetidin-2-ylmethoxy)-naphthalen-1-yl]-pyridin-2-ylamine]	135 to 150 °C

Results, then the compound that gave them:

melting point	Compound
50 to 60 °C	CC(C)N(CCOc1ccc(-c2cccc(N)n2)c2c1CCCC2)C(C)C (as salt: hydrochloride) [Example 40, 6-[4-(2-Diisopropylamino-ethoxy)-5,6,7,8-tetrahydro-naphthalen-1-yl]-pyridin-2-ylamine]
75 to 90 °C	Nc1cccc(-c2ccc(OC3CN(Cc4ccco4)C3)c3ccccc23)n1 (as salt: hydrochloride) [Example 67, 6-[4-(1-Furan-2-ylmethyl-azetidin-3-yloxy)-naphthalen-1-yl]-pyridin-2-ylamine]
78 to 85 °C	CC(C)CN1CCC(Oc2ccc(-c3cccc(N)n3)c3ccccc23)C1 (centres unmarked) (as salt: hydrochloride) [Example 31, 6-[4-(1-Isobutyl-pyrrolidin-3-yloxy)-naphthalen-1-yl]-pyridin-2-ylamine]
179 to 187 °C	CN1CCC(Oc2ccc(-c3cccc(N)n3)c3ccccc23)CC1 (as salt: hydrochloride) [Example 33, 6-[4-(1-Methyl-piperidin-4-yloxy)-naphthalen-1-yl]-pyridin-2-ylamine]
130 to 150 °C	COc1cc2c(cc1OC)CN(CCOc1ccc(-c3cccc(N)n3)c3ccccc13)CC2 (as salt: hydrochloride) [Example 15, 6-{4-[2-(6,7-Dimethoxy-3,4-dihydro-1H-isoquinolin-2-yl)-ethoxy]-naphthalen-1-yl}-pyridin-2-ylamine]
240 to 255 °C	CN1CC(Oc2ccc(-c3cccc(N)n3)c3ccccc23)C1 (as salt: hydrochloride) [Example 75, 6-[4-(N-methyl-azetidin-3-yloxy)-naphthalen-1-yl]-pyridin-2-ylamine]
80 to 110 °C	Nc1cccc(-c2ccc(CCNCc3ccc4c(c3)OCO4)c3ccccc23)n1 (as salt: hydrochloride) [Example 6, 6-(4-{2-[(Benzo[1,3]dioxol-5-ylmethyl)-amino]-ethyl}-naphthalen-1-yl)-pyridin-2-ylamine]
70 to 80 °C	Nc1cccc(-c2ccc(CCNCc3ccc(F)c(F)c3)c3ccccc23)n1 (as salt: hydrochloride) [Example 7, 6-{4-[2-(3,4-Difluoro-benzylamino)-ethyl]-naphthalen-1-yl}-pyridin-2-ylamine]
172 to 176 °C	COc1cc2c(cc1OC)CN(CCc1ccc(-c3cccc(N)n3)c3ccccc13)CC2 [Example 4, 6-{4-[2-(6,7-Dimethoxy-3,4-dihydro-1H-isoquinolin-2-yl)-ethyl]-naphthalen-1-yl}-pyridin-2-ylamine]
198 to 210 °C	CC(C)CN1CCC(Oc2ccc(-c3cccc(N)n3)c3ccccc23)CC1 (as salt: hydrochloride) [Example 29, 6-[4-(1-Isobutyl-piperidin-4-yloxy)-naphthalen-1-yl]-pyridin-2-ylamine]
265 to 285 °C (dec.)	Nc1cccc(-c2ccc(OC3CCN(Cc4ccccc4)CC3)c3ccccc23)n1 (as salt: hydrochloride) [Example 24, 6-[4-(1-Benzyl-piperidin-4-yloxy)-naphthalen-1-yl]-pyridin-2-ylamine]
97 to 120 °C	Nc1cccc(-c2ccc(OC3CN(Cc4ccccn4)C3)c3ccccc23)n1 (as salt: hydrochloride) [Example 74, 6-[4-(1-Pyridin-2-ylmethyl-azetidin-3-yloxy)-naphthalen-1-yl]-pyridin-2-ylamine]
220 to 228 °C	Nc1cccc(-c2ccc(OC3CN4CCC3CC4)c3ccccc23)n1 (centres unmarked) (as salt: hydrochloride)
60 to 70 °C	Nc1cccc(-c2ccc(OC3CCNC3)c3ccccc23)n1 (centres unmarked) (as salt: hydrochloride) [Example 28, 6-[4-(Pyrrolidin-3-yloxy)-naphthalen-1-yl]-pyridin-2-ylamine]
133 to 148 °C	CC(C)CN1CC(Oc2ccc(-c3cccc(N)n3)c3ccccc23)C1 (as salt: hydrochloride) [Example 65, 6-[4-(1-Isobutyl-azetidin-3-yloxy)-naphthalen-1-yl]-pyridin-2-ylamine]
80 to 105 °C	Nc1cccc(-c2ccc(CCN3CCN(CCc4ccccc4)CC3)c3ccccc23)n1 (as salt: hydrochloride) [Example 1, 6-{4-[2-(4-Phenethyl-piperazin-1-yl)-ethyl]-naphthalen-1-yl)-pyridin-2-ylamine]
185 to 205 °C	Nc1cccc(-c2ccc(CCNCc3ccco3)c3ccccc23)n1 (as salt: hydrochloride) [Example 10, 6-(4-{2-[(Furan-2-ylmethyl)-amino]-ethyl}-naphthalen-1-yl)-pyridin-2-ylamine]
65 to 90 °C	CN(CCOc1ccc(-c2cccc(N)n2)c2c1CCCC2)C(C)(C)C (as salt: hydrochloride) [Example 39, 6-{4-[2-(tert-Butyl-methyl-amino)-ethoxy]-5,6,7,8-tetrahydro-naphthalen-1-yl}-pyridin-2-ylamine]
250 to 260 °C	Nc1cccc(-c2ccc(CCN3CC4C(N)C4C3)c3ccccc23)n1 (centres unmarked) (as salt: hydrochloride) [Example 2, 3-{2-[4-(6-Amino-pyridin-2-yl)-naphthalen-1-yl]-ethyl}-3-aza-bicyclo[3.1.0]hex-6-ylamine]
70 to 90 °C	Nc1cccc(-c2ccc(OCCN3CCC(N)C3)c3ccccc23)n1 (centres unmarked) (as salt: hydrochloride) [Example 18, 6-{4-[2-(3-Amino-pyrrolidin-1-yl)-ethoxy]-naphthalen-1-yl}-pyridin-2-ylamine]
75 to 95 °C	COc1cc(CNCCc2ccc(-c3cccc(N)n3)c3ccccc23)cc(OC)c1OC (as salt: hydrochloride) [Example 8, 6-{4-[2-(3,4,5-Trimethoxy-benzylamino)-ethyl]-naphthalen-1-yl}-pyridin-2-ylamine]
